Experimental findings from US12221423B1, “3-(3-fluorophenyl)-5-(4-methoxybenzylthio)-4-phenyl-4H-1,2,4-triazole as an antimicrobial compound” (KING FAISAL UNIVERSITY, priority 2023, dated 2025) are described below.

Assay type in all cases: cell-based
One experiment concerns Aspergillus flavus. Briefly: Agar plate disc-diffusion, antifungal inhibition zone. As to conditions: Sabouraud's dextrose agar, 72 hours. How it is done: (§1) The agar plate disc-diffusion method was applied. […] The discs were then placed onto the surface of agar plates (nutrient agar for bacteria and Sabouraud's dextrose agar for fungi) seeded with the test organism. Each plate contained 15 mL of the agar medium, previously seeded with 0.2 mL of the broth culture of each organism pregrown for 18 hours. The plates were incubated at 37° C. for 48 hours, and 72 hours for fungi. The inhibition zones were measured in mm. Discs impregnated with DMSO were used as a control, and its inhibition zone was subtracted from the tested compound actual inhibition zone.

The subject of experiment [1] is Chrysosporium keratinophilum. The description is as above. Conditions: Sabouraud's dextrose agar, 72 hours. The protocol:
as §1

In another experiment the test system is Staphylococcus aureus. The experiment in a line: Agar plate disc-diffusion, antibacterial inhibition zone. As to conditions: Staphylococcus aureus (Gram positive), nutrient agar, 37° C., 48 hours. The protocol:
as §1
For orientation: A growth-free zone around the sample is the usual read-out of agar diffusion tests.

In another experiment the test system is Pseudomonas aeruginosa. The experiment is described as above. As to conditions: Pseudomonas aeruginosa (Gram negative), nutrient agar, 37° C., 48 hours. The protocol:
as §1

In the next experiment the test system is Bacillus Cereus. Described as above. As to conditions: Bacillus Cereus (Gram positive), nutrient agar, 37° C., 48 hours. The protocol:
as §1

The next experiment relates to Escherichia coli. The experiment is described as above. Conditions: Escherichia coli (Gram negative), nutrient agar, 37° C., 48 hours. The protocol:
as §1

Setting [2] is: A = concentration of comp. = 10,000 μL.
The mark [3] stands for this setting: B = concentration of comp. = 30,000 μL.
[4] abbreviates: C = concentration of comp. = 50,000 μL.

The structures appear in SMILES notation.

In the case of `COc1ccc(CSc2nnc(-c3cccc(F)c3)n2-c2ccccc2)cc1` [III, 3-(3-fluorophenyl)-5-(4-methoxybenzylthio)-4-phenyl-4H-1,2,4-triazole], the inhibition zone with Aspergillus flavus (setting [2]) was determined as 19 mm; with Aspergillus flavus (setting [3]) it was 22 mm; in the experiment on Aspergillus flavus (setting [4]), 31 mm; in experiment [1] (setting [2]), 26 mm; in experiment [1] (setting [3]), 28 mm; in experiment [1] (setting [4]), 42 mm. The inhibition zone with Staphylococcus aureus (setting [2]) turned out to be 16 mm; with Staphylococcus aureus (setting [3]), 22 mm; in the experiment on Staphylococcus aureus (C = concentration of comp.), 34 mm; in the experiment on Pseudomonas aeruginosa (setting [2]), 22 mm; in the experiment on Pseudomonas aeruginosa (setting [3]), 25 mm; in the experiment on Pseudomonas aeruginosa (setting [4]), 36 mm. Further, the inhibition zone in the experiment on Bacillus Cereus (setting [2]) was found to be 24 mm; with Bacillus Cereus (setting [3]), 27 mm; in the experiment on Bacillus Cereus (setting [4]), 40 mm; in the experiment with Escherichia coli (setting [2]), 27 mm; in the experiment on Escherichia coli (setting [3]), 35 mm; with Escherichia coli (setting [4]), 48 mm.
